#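 Values below derive from 48-hour exposures of cells grown in 96-well plates, with endpoints linearly interpolated between the two concentrations bracketing the appropriate inhibition level. GI50 = concentration required for 50% inhibition of growth. TGI denotes the concentration required for complete inhibition of growth.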
# Key:
# Experiment in all cases: NCI anticancer screen, dose series, 48 h
# M14 melanoma = tested on: M14 melanoma
# MOLT-4 leukemia = tested on: MOLT-4 leukemia
# HOP-92 NSCLC = tested on: HOP-92 NSCLC
# SR leukemia = tested on: SR leukemia
# OVCAR-8 ovarian = tested on: OVCAR-8 ovarian
# OVCAR-4 ovarian = tested on: OVCAR-4 ovarian
# SK-MEL-5 melanoma = tested on: SK-MEL-5 melanoma
# RXF 393 renal = tested on: RXF 393 renal
# SNB-75 CNS = tested on: SNB-75 CNS
# HCC-2998 colon = tested on: HCC-2998 colon
# EKVX NSCLC = tested on: EKVX NSCLC
# NCI-H522 lung = tested on: NCI-H522 lung
# SF-539 CNS = tested on: SF-539 CNS
# HL-60(TB) leukemia = tested on: HL-60(TB) leukemia
# DU-145 prostate = tested on: DU-145 prostate
# SK-MEL-28 melanoma = tested on: SK-MEL-28 melanoma
# A549 NSCLC = tested on: A549 NSCLC
# T-47D breast = tested on: T-47D breast
# SK-OV-3 ovarian = tested on: SK-OV-3 ovarian
# LOX IMVI melanoma = tested on: LOX IMVI melanoma
# NCI-H23 lung = tested on: NCI-H23 lung
# SW-620 colon = tested on: SW-620 colon
# OVCAR-5 ovarian = tested on: OVCAR-5 ovarian
# HCT-15 colon = tested on: HCT-15 colon
# CCRF-CEM leukemia = tested on: CCRF-CEM leukemia
# SF-295 CNS = tested on: SF-295 CNS
# KM12 colon = tested on: KM12 colon
# HCT-116 colon = tested on: HCT-116 colon
# TK-10 renal = tested on: TK-10 renal
# NCI-H226 lung = tested on: NCI-H226 lung
# K-562 leukemia = tested on: K-562 leukemia
# SF-268 CNS = tested on: SF-268 CNS
# ACHN renal = tested on: ACHN renal
# SK-MEL-2 melanoma = tested on: SK-MEL-2 melanoma
# NCI-H460 lung = tested on: NCI-H460 lung
# U251 CNS = tested on: U251 CNS
# HS 578T breast = tested on: HS 578T breast
# SNB-19 CNS = tested on: SNB-19 CNS
# A498 renal = tested on: A498 renal
# RPMI-8226 leukemia = tested on: RPMI-8226 leukemia
# BT-549 breast = tested on: BT-549 breast
# UO-31 renal = tested on: UO-31 renal
# MDA-MB-231 breast = tested on: MDA-MB-231 breast
# COLO 205 colon = tested on: COLO 205 colon
# UACC-257 melanoma = tested on: UACC-257 melanoma
# UACC-62 melanoma = tested on: UACC-62 melanoma
# 786-0 renal = tested on: 786-0 renal
# MALME-3M melanoma = tested on: MALME-3M melanoma
# CAKI-1 renal = tested on: CAKI-1 renal
# MDA-MB-435 = tested on: MDA-MB-435
# OVCAR-3 ovarian = tested on: OVCAR-3 ovarian
# SN12C renal = tested on: SN12C renal
# HT29 colon = tested on: HT29 colon
# IGROV1 ovarian = tested on: IGROV1 ovarian
# HOP-62 NSCLC = tested on: HOP-62 NSCLC
# MCF7 breast = tested on: MCF7 breast
compound,measurement,setting,value
CC1=CC(=O)C(C(C)C)=CC1=Nc1cc(Br)c(O)c(Br)c1,GI50,M14 melanoma,2.52 µM
same,TGI,M14 melanoma,7.52 µM
same,GI50,MOLT-4 leukemia,4.53 µM
same,TGI,MOLT-4 leukemia,23.4 µM
same,GI50,HOP-92 NSCLC,11.5 µM
same,TGI,HOP-92 NSCLC,40.8 µM
same,GI50,SR leukemia,3.45 µM
same,TGI,SR leukemia,15.8 µM
same,GI50,OVCAR-8 ovarian,4.65 µM
same,TGI,OVCAR-8 ovarian,57.8 µM
same,GI50,OVCAR-4 ovarian,6.29 µM
same,TGI,OVCAR-4 ovarian,19.5 µM
same,GI50,SK-MEL-5 melanoma,3.15 µM
same,TGI,SK-MEL-5 melanoma,10.7 µM
same,GI50,RXF 393 renal,3.9 µM
same,TGI,RXF 393 renal,15.3 µM
same,GI50,SNB-75 CNS,4.22 µM
same,TGI,SNB-75 CNS,21.6 µM
same,GI50,HCC-2998 colon,3.56 µM
same,TGI,HCC-2998 colon,13 µM
same,GI50,EKVX NSCLC,4.51 µM
same,TGI,EKVX NSCLC,36 µM
same,GI50,NCI-H522 lung,4.42 µM
same,TGI,NCI-H522 lung,18 µM
same,GI50,SF-539 CNS,2.29 µM
same,TGI,SF-539 CNS,5.96 µM
same,GI50,HL-60(TB) leukemia,3.48 µM
same,TGI,HL-60(TB) leukemia,8.5 µM
same,GI50,DU-145 prostate,3.58 µM
same,TGI,DU-145 prostate,11.7 µM
same,GI50,SK-MEL-28 melanoma,6.82 µM
same,TGI,SK-MEL-28 melanoma,22.4 µM
same,GI50,A549 NSCLC,4.98 µM
same,TGI,A549 NSCLC,> 100 µM
same,GI50,T-47D breast,5.74 µM
same,TGI,T-47D breast,21.2 µM
same,GI50,SK-OV-3 ovarian,3.45 µM
same,TGI,SK-OV-3 ovarian,15.9 µM
same,GI50,LOX IMVI melanoma,5.04 µM
same,TGI,LOX IMVI melanoma,20.4 µM
same,GI50,NCI-H23 lung,4.26 µM
same,TGI,NCI-H23 lung,26.1 µM
same,GI50,SW-620 colon,4.18 µM
same,TGI,SW-620 colon,15.4 µM
same,GI50,OVCAR-5 ovarian,11.8 µM
same,TGI,OVCAR-5 ovarian,30.3 µM
same,GI50,HCT-15 colon,3.85 µM
same,TGI,HCT-15 colon,21.1 µM
same,GI50,CCRF-CEM leukemia,2.72 µM
same,TGI,CCRF-CEM leukemia,18.1 µM
same,GI50,SF-295 CNS,1.4 µM
same,TGI,SF-295 CNS,5.53 µM
same,GI50,KM12 colon,2.33 µM
same,TGI,KM12 colon,7.01 µM
same,GI50,HCT-116 colon,3.39 µM
same,TGI,HCT-116 colon,11.6 µM
same,GI50,TK-10 renal,11.7 µM
same,TGI,TK-10 renal,31.4 µM
same,GI50,NCI-H226 lung,3.87 µM
same,TGI,NCI-H226 lung,19.3 µM
same,GI50,K-562 leukemia,3.92 µM
same,TGI,K-562 leukemia,13.4 µM
same,GI50,SF-268 CNS,4.49 µM
same,TGI,SF-268 CNS,17.2 µM
same,GI50,ACHN renal,11.6 µM
same,TGI,ACHN renal,30.1 µM
same,GI50,SK-MEL-2 melanoma,8.94 µM
same,TGI,SK-MEL-2 melanoma,30.1 µM
same,GI50,NCI-H460 lung,3.53 µM
same,TGI,NCI-H460 lung,14.4 µM
same,GI50,U251 CNS,4.72 µM
same,TGI,U251 CNS,19.1 µM
same,GI50,HS 578T breast,2.76 µM
same,TGI,HS 578T breast,21.1 µM
same,GI50,SNB-19 CNS,9.95 µM
same,TGI,SNB-19 CNS,26.1 µM
same,GI50,A498 renal,3.81 µM
same,TGI,A498 renal,19.6 µM
same,GI50,RPMI-8226 leukemia,4.51 µM
same,TGI,RPMI-8226 leukemia,27.5 µM
same,GI50,BT-549 breast,1.69 µM
same,TGI,BT-549 breast,5.64 µM
same,GI50,UO-31 renal,8.22 µM
same,TGI,UO-31 renal,33.1 µM
same,GI50,MDA-MB-231 breast,3.65 µM
same,TGI,MDA-MB-231 breast,12.9 µM
same,GI50,COLO 205 colon,19.2 µM
same,TGI,COLO 205 colon,35.1 µM
same,GI50,UACC-257 melanoma,14.7 µM
same,TGI,UACC-257 melanoma,33.1 µM
same,GI50,UACC-62 melanoma,2.86 µM
same,TGI,UACC-62 melanoma,13.1 µM
same,GI50,786-0 renal,5.03 µM
same,TGI,786-0 renal,17.8 µM
same,GI50,MALME-3M melanoma,14.1 µM
same,TGI,MALME-3M melanoma,33.4 µM
same,GI50,CAKI-1 renal,2.46 µM
same,TGI,CAKI-1 renal,8.02 µM
same,GI50,MDA-MB-435,2.1 µM
same,TGI,MDA-MB-435,6.13 µM
same,GI50,OVCAR-3 ovarian,2.68 µM
same,TGI,OVCAR-3 ovarian,7.47 µM
same,GI50,SN12C renal,5.56 µM
same,TGI,SN12C renal,18.3 µM
same,GI50,HT29 colon,4.05 µM
same,TGI,HT29 colon,16 µM
same,GI50,IGROV1 ovarian,4.68 µM
same,TGI,IGROV1 ovarian,20.2 µM
same,GI50,HOP-62 NSCLC,6.29 µM
same,TGI,HOP-62 NSCLC,45.2 µM
same,GI50,MCF7 breast,4.27 µM
same,TGI,MCF7 breast,17.7 µM

# Source: PubChem BioAssay (NCI)
